Results published in PMC5561046, “Cytochrome P450/ABC transporter inhibition simultaneously enhances ivermectin pharmacokinetics in the mammal host and pharmacodynamics in Anopheles gambiae” (Scientific Reports, 2017).
Where “and” joins values, the source holds several entries; their conditions need not be identical. Equal values may be shown once. Entries after “also recorded” stand apart in the source; their conditions may differ.

Key:
[1] = cited from earlier work
[2] = Drug-drug interaction study: ivermectin plasma pharmacokinetics in mini-pigs; details: for AUC inf, Median (Range) / Cmax, Median (Range) / AUC > LD50, Median (Range) / Time > LD50, Median (Range): group median (range); for AUC inf, Median (Range) / Cmax, Median (Range): plasma ivermectin, single oral 800 mcg/kg; for AUC inf, Median (Range) / Cmax, Median (Range) / AUC > LD50, Median (Range) / Time > LD50, Median (Range) / Time > LD50: treatment group as in the label; for AUC > LD50, Median (Range): area under the plasma ivermectin curve above 6 ng/ml; for AUC > LD50, Median (Range) / Time > LD50, Median (Range) / Time > LD50: oral 800 mcg/kg; for Time > LD50, Median (Range): time plasma ivermectin is above 6 ng/ml; for Time > LD50: individual mini-pig, time plasma ivermectin is above 6 ng/ml (10-day LC50 for Anopheles gambiae)
Description: (§1) The experiments were conducted following a randomised crossover design (Fig. 1). In phase I all mini-pigs received a single 800 mcg/kg dose of oral ivermectin and sampling was done as described below. […] The total wash-out period between ivermectin doses was 30 days. […] Inhibiting the P-gp could theoretically lead to toxicity due to abnormal accumulation of the drug in the brain[30], [31]. […] Irrespectively of this, drug quantification in cerebrospinal fluid (CSF) was added as an additional safety point. Rifampicin a CYP/P-gp inducer[49] was included as we expected to see reduced bioavailability and penetration into CSF.
The pre-medication drugs were administered by crushing the tablets and mixing them with canned meat products used for enrichment. For ivermectin administration and sampling during the first 8 hours, the animals were sedated with a single intramuscular dose of tiletamine-zolazepan (4 mg/kg) and maintained with inhalatory isoflurane (1.5–2%). In pigs, there is no evidence of a significant interaction (other than being a substrate) of these drug classes with the CYP3A4 or the P-gp[80]. Ivermectin was administered via nasogastric tube.
For blood sampling during the first eight hours, a femoral line was left in place and later removed during recovery from anaesthesia. Blood sampling thereafter was done by jugular puncture under restrain. […] For the mosquito bioassay, additional serum samples were obtained at every time point, and frozen at −20 °C.
Blood samples were drawn in 3 ml EDTA tubes and centrifuged. Plasma was separated and frozen at −20 °C until analysis. CSF samples were frozen at −20 °C.
(§2) Ivermectin levels in plasma and CSF were determined using a validated adaptation of a previously described HPLC-FLD[82]. The detection limit in plasma and CSF was 0.1 ng/ml, the quantification limit was 0.5 ng/ml.
Pharmacokinetic analyses were performed using Phoenix WinNonlin 6.4 (Certara, Princeton, NJ, USA). Pharmacokinetic parameters were derived from non-compartmental analyses.
The comparison of PK parameters between ivermectin groups was done by means of a two-sided Mann-Whitney test.

[3] = minipig, in vivo
Description: as §1
For obtaining CSF samples during the first 8 hours, an intrathecal catheter was placed by means of fluoroscopy-guided lateral lumbar puncture[81] (Fig. 5). Given the challenges posed by the particular anatomy of the pig, efforts were done to tunnel the intrathecal catheter and connect it to a subcutaneous reservoir in order to avoid repeating the technically demanding lumbar puncture during phase II of the study (Fig. 5). […] Sampling points for CSF were: pre-treatment and at 0.5, 1, 2, 3, 4, 5, 6, 7 and 8 hours. […]
as §2

[4] = test system: Anopheles gambiae; design: method as in PMID 25414262; details: cited from earlier work
[5] = test system: Anopheles gambiae; assay: Synergistic mosquito bioassay: membrane feeding with mini-pig serum samples, mortality follow-up; format: in vivo, Anopheles gambiae s.s.; details: for Mean survival / Time to median mortality: Anopheles gambiae, membrane feeding
Description: Mosquitoes were membrane fed with reconstituted blood as described by Bousema et al.[51].
Since mosquitoes grouped in cups for feeding, we used a cluster design in which the unit of intervention was mosquito cups. Our primary outcome was mean 10-day mosquito mortality after membrane feeding. Sample size calculations were conducted according to the method described by Gangnon and Kosorok[52]. The minimum expected 10-day mortality in mosquitoes imbibing blood containing 9.9 ng/ml of ivermectin is 66%; this is based on the predictive function described by Ouedraogo et al.[50]. Based on previous observations and with all mosquitoes having the same colony origin and age range, we chose a conservative intracluster correlation of 0.15. The frailty variance of clusters was resembled by a gamma of 1. All experiments were performed in triplicate. With these parameters, at least 4 clusters of 44 mosquitoes were needed per arm to achieve 80% power at 5% significance level accounting for 10% non-feeders.
Baseline serum samples collected before ivermectin treatment in ketoconazole and naïve pigs were used as controls. These samples were shipped frozen to the insectary facilities of the Ifakara Health Institute in Bagamoyo, Tanzania for membrane feeding assays. It was hypothesised that induction of the mosquito CYP/P-gp by rifampicin could improve survival in presence of ivermectin, but this could not be tested due to a reduced absorption of ivermectin in the mini-pigs pre-treated with rifampicin (see below).
For all experiments, we used the fully susceptible Anopheles gambiae s.s. colony maintained at the insectary in Bagamoyo. Mosquitoes were reared at 28 °C, 80% humidity and with a photoperiod of 12:12. Larvae were kept in large plastic bowls covered with netting containing approximately 2 litres of water with larval densities not exceeding one 4th instar larvae per ml. Larvae were fed Tetramine fish flakes ad libitum. Once they developed into pupae these were collected using disposable plastic Pasteur pipettes and transferred to small bowls containing approximately 200 ml of clean water. The pupae bowls were then placed inside fully screened cages (30 × 30 × 30 cm) where adult mosquitoes were allowed to emerge and given 10% glucose as a sugar source ad libitum.
Only mosquitoes of 2–5 days of age were used for the experiments. Before the experiments, mosquitoes were starved from sugar for 12–18 hours and from water for one hour. Hungry females were selected by applying a bottle with heated water (37–40 °C) to the cage. 40–50 hungry females were transferred to each paper cup using a mouth aspirator.
We performed membrane feeding assays with serum replacement as previously described. For each experiment, the selected pig sample was thawed and 1 ml of whole blood was centrifuged at 2100 rpm for 10 minutes. The serum volume was noted and replaced with the same amount of the sample pig-serum being tested. After this, tubes were inverted 10 times. Each sample was tested in triplicate.
In order to reduce potential confounding arising from variations in bloodmeal size, partially fed mosquitoes were discarded and only fully engorged females followed up for the mortality assessment. After each feeding experiment, the cups were placed on ice for 1–2 minutes to select and transfer fully engorged females.
Cups with fully engorged mosquitoes were kept at 24–26 °C and 65–70% relative humidity inside climate controlled incubators. Mosquitoes were maintained with 10% glucose solution using impregnated cotton. Mortality was recorded daily for 9 days by a person blinded to the allocation of the cups. Dead mosquitoes were removed from the cups daily.
Survival Kaplan-Meier analysis was performed in Addinsoft’s XLSTAT ® Version 2016.04.32229 (New York, NY, USA). Comparisons of survival patterns were done with Log-rank test using a 5% significance level adjusted for cluster design.

[6] = Clinical observation of mini-pigs for adverse events / ivermectin toxicity signs; format: in vivo, mini-pig; details: oral ivermectin 800 mcg/kg with or without ketoconazole or rifampicin pre-treatment
Description: Six hybrid mini-pigs (2 male, 4 female) weighing between 46 and 70 kg were procured from our accredited breeding centre at the University of Navarra. They were housed individually throughout the study at the animal research facilities in the University of Navarra. From arrival onward, the animals were assessed daily for general wellbeing and after the intervention, also for specific ivermectin toxicity signs.

[7] = test system: CYP 3A4; design: method as in PMID 19255936; details: estimated; cited from earlier work
[8] = Pair 1: ivermectin 9.98 (IVM) vs 8.96 (KET) ng/ml in the fed sample
[9] = Pair 2: ivermectin 16.5 (IVM) vs 17.23 (KET) ng/ml in the fed sample
[10] = Pair 3: ivermectin 20.46 (IVM) vs 20.39 (KET) ng/ml in the fed sample
[11] = Pair 4: ivermectin 27.58 (IVM) vs […] (KET) ng/ml in the fed sample

CCC(C)C1OC2(CCC1C)CC1CC(CC=C(C)C(OC3CC(OC)C(OC4CC(OC)C(O)C(C)O4)C(C)O3)C(C)C=CC=C3COC4C(O)C(C)=CC(C(=O)O1)C34O)O2 (stereo not shown) [Ivermectin]
time for which concentrations that kill 50% of Anopheles gambiae in 10 days are sustained ([1]; after the single dose of 200 mcg/kg commonly used for NTDs, no reference given): around 72 hours | half-life [1]: 18 h | AUC inf, Median (Range) ([2]; listed as Ivermectin 1): 244 (1899) h·ng/mL | Cmax, Median (Range) ([2]; listed as Ivermectin 1): 8.7 (26.0) ng/mL | AUC inf, Median (Range) ([2]; listed as Ivermectin 2): 1205.3 (349) h·ng/mL | Cmax, Median (Range) ([2]; listed as Ivermectin 2): 18 (5.6) ng/mL | AUC inf, Median (Range) ([2]; listed as Ivermectin(combined)): 862.7 (1899) h·ng/mL | AUC > LD50, Median (Range) ([2]; listed as Ivermectin 1): 23.7 (509.4) h·g/mL | AUC > LD50, Median (Range) ([2]; listed as Ivermectin 2): 297.6 (142.6) h·g/mL | Time > LD50, Median (Range) ([2]; listed as Ivermectin 1): 4.6 (46.7) h | Time > LD50, Median (Range) ([2]; listed as Ivermectin 2): 49.9 (9.1) h | Time > LD50 ([2]; listed as Ivermectin 1): 9.3 h | Time > LD50 ([2]; listed as Ivermectin 2): 54.5 h and 45.4 h | Time > LD50 ([2]; listed as Ivermectin(combined)): 46.7 h and 27.2 h and 0.0 h | increase in ivermectin time above LC50 ([2]; ketoconazole pre-treatment vs ivermectin alone, mini-pigs): 3 fold | median Cmax ([2]; plasma ivermectin in mini-pigs, ivermectin alone (combined) vs ketoconazole pre-treatment, P = 0.033): 14 ng/mL | total AUC ([2]; plasma ivermectin in mini-pigs, ivermectin alone (combined) vs ketoconazole pre-treatment, P = 0.067, not significant): 862 ng·h/mL | ivermectin concentration in CSF [3]: < 0.5 ng/mL | number of CSF samples in which ivermectin was detectable [3]: 4 | 10-day lethal concentration 50 (LC50) ([4]; kills 50% of Anopheles gambiae in 10 days): 6 ng/ml | minimum expected 10-day mortality ([4]; mosquitoes imbibing blood containing 9.9 ng/ml of ivermectin, from predictive function): 66% | Mean survival [5, 8]: 6.73 (6.29–7.17) days | Time to median mortality [5, 8]: 7 days | Mean survival [5, 9]: 5.11 (4.63–5.86) days | Time to median mortality [5, 9]: 5 days | Mean survival [5, 10]: 7.43 (7.11–7.75) days | Time to median mortality [5, 10]: 7 days | Mean survival [5, 11]: 5.28 (4.54–6.02) days | Time to median mortality [5, 11]: 5 days | clinical adverse events [6]: No clinical adverse events were observed

CC(=O)N1CCN(c2ccc(OCC3COC(Cn4ccnc4)(c4ccc(Cl)cc4Cl)O3)cc2)CC1 (stereo not shown) [ketoconazole]
IC50 [7]: […] | effect on mortality of Anopheles gambiae fed samples containing ivermectin ([5]; ketoconazole at CYP inhibition concentrations, matched ivermectin concentrations (+/−1 ng/ml), all four pairs): significantly increased the mortality | effect on 10-day mortality of Anopheles gambiae ([5]; ketoconazole-only baseline pig sample vs fully drug-free sample, Log-rank P = 0.048, n = 222): did not increase the mortality

CO[C@H]1/C=C/O[C@@]2(C)Oc3c(C)c(O)c4c(O)c(c(/C=N/N5CCN(C)CC5)c(O)c4c3C2=O)NC(=O)/C(C)=C\C=C\[C@H](C)[C@H](O)[C@@H](C)[C@@H](O)[C@@H](C)[C@H](OC(C)=O)[C@@H]1C [rifampicin, Rifampicin]
effect of pre-treatment on ivermectin absorption ([2]; rifampicin pre-treatment (CYP/P-gp induction), mini-pigs, oral ivermectin 800 mcg/kg): markedly impaired ivermectin absorption; also recorded: seriously hampered ivermectin absorption
